Source: ChEMBL document CHEMBL1201862, “PubChem BioAssay data set” (2004)
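Exposure lasted 48 hours, with cells grown in 96-well plates and compounds tested at five concentrations. Here, GI50 denotes the concentration required for 50% inhibition of growth.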 Active and inactive are the calls of the source. Cut-off read from the data, not from the text of the source: active = GI50 up to about 1.1 µM and inactive = higher.

What was measured:
Assay in all cases: DTP human tumour cell line panel, 48 h
786-0 = tested on: 786-0
A549 = tested on: A549
HCT-116 = tested on: HCT-116
HT-29 = tested on: HT-29
K562 = tested on: K562
LOX IMVI = tested on: LOX IMVI
Malme-3M = tested on: Malme-3M
NCI-H226 = tested on: NCI-H226
NCI-H23 = tested on: NCI-H23
OVCAR-3 = tested on: OVCAR-3
OVCAR-4 = tested on: OVCAR-4
OVCAR-5 = tested on: OVCAR-5
RXF 393 = tested on: RXF 393
SF-268 = tested on: SF-268
SK-MEL-2 = tested on: SK-MEL-2
SK-MEL-5 = tested on: SK-MEL-5
SK-OV-3 = tested on: SK-OV-3
UO-31 = tested on: UO-31
HOP-92 = tested on: HOP-92

Measured: GI50

CCOC(=O)C1(C#N)C(c2ccccc2)CC(O)(c2ccc(Cl)cc2)C(C(=O)c2ccc(Cl)cc2)C1c1ccccc1 (stereo not given)
inactive: 786-0 > 100 µM | A549 > 100 µM | HCT-116 > 100 µM | HT-29 > 100 µM | K562 > 10 µM | LOX IMVI > 100 µM | Malme-3M > 100 µM | NCI-H226 > 100 µM | NCI-H23 > 100 µM | OVCAR-3 > 100 µM | OVCAR-4 > 100 µM | OVCAR-5 > 100 µM | RXF 393 37.8 µM | SF-268 > 100 µM | SK-MEL-2 > 100 µM | SK-MEL-5 > 100 µM | SK-OV-3 38.6 µM | UO-31 > 100 µM

O=C(O)c1nc(-c2ccc(Cl)c(Cl)c2)nc2ccc(Cl)cc12
inactive: 786-0 48.4 µM | A549 > 100 µM | HCT-116 66.7 µM | HT-29 > 100 µM | K562 > 10 µM | Malme-3M > 100 µM | NCI-H23 38.3 µM | OVCAR-3 51.9 µM | OVCAR-5 > 100 µM | RXF 393 28.3 µM | SF-268 63 µM | SK-MEL-2 78 µM | SK-MEL-5 > 100 µM | SK-OV-3 17.8 µM | UO-31 > 100 µM

CC(CN1CCN(CC(C)Nc2ccnc3cc(Cl)ccc23)CC1)Nc1ccnc2cc(Cl)ccc12 (stereo not given)
inactive: 786-0 17.8 µM | A549 17.8 µM | HCT-116 13.4 µM | HT-29 6.93 µM | K562 2.84 µM | LOX IMVI 3.76 µM | Malme-3M 21.2 µM | NCI-H226 28.4 µM | NCI-H23 18.6 µM | OVCAR-3 22.8 µM | OVCAR-4 20.2 µM | OVCAR-5 23.2 µM | RXF 393 13.2 µM | SF-268 2.81 µM | SK-MEL-5 17.5 µM | SK-OV-3 34 µM | UO-31 22.7 µM

COc1ccc(N2C(=O)[C@@H]3[C@H](C2=O)c2[nH]c4ccccc4c2C2CCC(C(C)(C)C)C[C@@H]23)cc1 (stereo not given in full)
inactive: 786-0 14.9 µM | A549 24.2 µM | HCT-116 30.5 µM | HT-29 29.2 µM | K562 14.5 µM | LOX IMVI 22.8 µM | Malme-3M 30.4 µM | NCI-H226 22.3 µM | NCI-H23 22.4 µM | OVCAR-3 21.5 µM | OVCAR-5 > 100 µM | RXF 393 17.3 µM | SF-268 29.9 µM | SK-MEL-2 30.4 µM | SK-MEL-5 41.2 µM | SK-OV-3 18.6 µM | UO-31 > 47.4 µM

CC(C)=CC(=O)N1CCN(C(=O)C=C(C)C)CC1
inactive: 786-0 > 100 µM | A549 > 100 µM | HCT-116 > 100 µM | HOP-92 > 100 µM | HT-29 > 100 µM | K562 > 100 µM | LOX IMVI > 100 µM | NCI-H23 > 100 µM | OVCAR-3 > 100 µM | OVCAR-4 > 100 µM | OVCAR-5 > 100 µM | SF-268 > 100 µM | SK-MEL-5 > 100 µM | SK-OV-3 > 100 µM | UO-31 > 100 µM

C[n+]1c2ccccc2c(NCC(=O)O)c2ccccc21
inactive: 786-0 > 100 µM | A549 > 100 µM | HCT-116 86.7 µM | HT-29 > 100 µM | K562 > 100 µM | Malme-3M > 100 µM | NCI-H226 > 100 µM | NCI-H23 > 100 µM | OVCAR-3 > 100 µM | OVCAR-4 > 100 µM | OVCAR-5 > 100 µM | RXF 393 > 100 µM | SF-268 > 100 µM | SK-MEL-2 > 100 µM | SK-MEL-5 > 100 µM | SK-OV-3 > 100 µM | UO-31 > 100 µM

CC1=C(C(=O)O)N2C(=O)[C@@H](NC(=O)C(c3ccc(O)cc3)N3CSC(=S)N(C(C)C)C3)C2SC1 (stereo not given in full)
inactive: 786-0 > 100 µM | A549 > 100 µM | HCT-116 > 100 µM | HOP-92 > 100 µM | HT-29 > 100 µM | K562 57.8 µM | LOX IMVI > 100 µM | Malme-3M > 100 µM | NCI-H23 > 100 µM | OVCAR-3 99.1 µM | OVCAR-4 > 100 µM | OVCAR-5 > 100 µM | SF-268 > 100 µM | SK-MEL-2 > 100 µM | SK-MEL-5 > 100 µM | SK-OV-3 > 100 µM | UO-31 > 100 µM

O=C1CN=C(C[N+](=O)[O-])c2ccccc21
inactive: 786-0 > 100 µM | A549 > 100 µM | HCT-116 > 100 µM | HOP-92 > 100 µM | HT-29 > 100 µM | K562 > 100 µM | Malme-3M > 100 µM | NCI-H226 > 100 µM | NCI-H23 > 100 µM | OVCAR-3 > 100 µM | OVCAR-4 > 100 µM | OVCAR-5 > 100 µM | SF-268 > 100 µM | SK-MEL-2 > 100 µM | SK-MEL-5 > 100 µM | SK-OV-3 > 100 µM | UO-31 > 100 µM

N#CC(C#N)=Cc1ccc(Oc2ccccc2)cc1
inactive: 786-0 18.2 µM | A549 > 100 µM | HCT-116 20.6 µM | HT-29 22.4 µM | K562 26.7 µM | LOX IMVI 15.8 µM | Malme-3M 21.7 µM | NCI-H226 > 43.9 µM | NCI-H23 23.6 µM | OVCAR-3 26.4 µM | OVCAR-5 > 100 µM | RXF 393 30.5 µM | SF-268 27.9 µM | SK-MEL-2 24.3 µM | SK-MEL-5 24.5 µM | SK-OV-3 > 100 µM | UO-31 25.9 µM

COC(=O)[C@]1(C)CCC[C@@]2(C)C1CCC1=CC3(C(C)C)CCC12OO3 (stereo not given in full)
inactive: 786-0 85.3 µM | A549 44 µM | HCT-116 42 µM | HT-29 34.4 µM | K562 27.7 µM | LOX IMVI 81.1 µM | Malme-3M 36.2 µM | NCI-H226 43.7 µM | NCI-H23 77.1 µM | OVCAR-3 > 100 µM | OVCAR-4 51.3 µM | OVCAR-5 > 100 µM | SF-268 > 100 µM | SK-MEL-2 46.9 µM | SK-MEL-5 31.1 µM | SK-OV-3 > 100 µM | UO-31 41 µM

O=C1N=CN=C2C=CC(Cl)=C(I)C12 (stereo not given)
inactive: 786-0 > 100 µM | A549 > 100 µM | HCT-116 42.5 µM | HT-29 > 100 µM | K562 > 100 µM | LOX IMVI 56.1 µM | Malme-3M > 100 µM | NCI-H23 46.2 µM | OVCAR-3 63 µM | OVCAR-4 > 100 µM | OVCAR-5 > 100 µM | RXF 393 23.3 µM | SF-268 20.2 µM | SK-MEL-2 81.5 µM | SK-MEL-5 98.2 µM | SK-OV-3 49.3 µM | UO-31 26.2 µM

CN(C)CC/C(=N\Nc1ccc(Cl)c(Cl)c1)c1ccccc1
inactive: 786-0 1.71 µM | A549 1.96 µM | HCT-116 1.73 µM | HT-29 1.96 µM | K562 1.93 µM | LOX IMVI 1.69 µM | Malme-3M 3.24 µM | NCI-H23 1.84 µM | OVCAR-3 2.8 µM | OVCAR-4 2.58 µM | OVCAR-5 2.56 µM | RXF 393 2.55 µM | SF-268 1.79 µM | SK-MEL-5 1.84 µM | SK-OV-3 3.72 µM | UO-31 1.45 µM
